Test results reported in PubChem BioAssay AID1963865 (Molecular Pharmacology Branch, DTP, NCI, 2024).

System: KRAS PDC multicell spheroid viability
Experiment: Anticancer human tumor 825966-067-R-J1-PDC patient-derived colon carcinoma cell line growth inhibition [KRAS2]
Conditions: for IC50: curve of first compound; for viability, T/C: stronger effect = lower value
Procedure, shortened: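 Combination screen of spheroid viability in tumor-cell co-cultures with endothelial (HUVEC) and mesenchymal stem cell stroma. Each agent was tested in half-log dilutions, topping at clinical Cmax or at 10 microM without a known Cmax.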

[1] = second compound 0.1 µM, first compound 0.0316 µM
[2] = second compound 0.1 µM, first compound 0.1 µM
[3] = second compound 0.1 µM, first compound 0.316 µM
[4] = second compound 0.1 µM, first compound 1 µM
[5] = second compound 0.1 µM, first compound 3.16 µM
[6] = second compound 0.1 µM, first compound 10 µM
[7] = second compound 0.316 µM, first compound 0.0316 µM
[8] = second compound 0.316 µM, first compound 0.1 µM
[9] = second compound 0.316 µM, first compound 0.316 µM
[10] = second compound 0.316 µM, first compound 1 µM
[11] = second compound 0.316 µM, first compound 3.16 µM
[12] = second compound 0.316 µM, first compound 10 µM
[13] = second compound 1 µM, first compound 0.0316 µM
[14] = second compound 1 µM, first compound 0.1 µM
[15] = second compound 1 µM, first compound 0.316 µM
[16] = second compound 1 µM, first compound 1 µM
[17] = second compound 1 µM, first compound 3.16 µM
[18] = second compound 1 µM, first compound 10 µM
[19] = second compound 3.16 µM, first compound 0.0316 µM
[20] = second compound 3.16 µM, first compound 0.1 µM
[21] = second compound 3.16 µM, first compound 0.316 µM
[22] = second compound 3.16 µM, first compound 1 µM
[23] = second compound 3.16 µM, first compound 3.16 µM
[24] = second compound 3.16 µM, first compound 10 µM
[25] = second compound 10 µM, first compound 0.0316 µM
[26] = second compound 10 µM, first compound 0.1 µM
[27] = second compound 10 µM, first compound 0.316 µM
[28] = second compound 10 µM, first compound 1 µM
[29] = second compound 10 µM, first compound 3.16 µM
[30] = second compound 10 µM, first compound 10 µM
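Note: spheroids exposed to compounds for 7 days.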
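Throughout, for viability, T/C: 100% = DMSO vehicle control viability.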

Structure (SMILES)	IC50 (second compound 0.1 µM) [nM]	IC50 (second compound 0.316 µM) [nM]	IC50 (second compound 1 µM) [nM]	IC50 (second compound 3.16 µM) [nM]	IC50 (second compound 10 µM) [nM]	viability, T/C [1] [%]	viability, T/C [2] [%]	viability, T/C [3] [%]	viability, T/C [4] [%]	viability, T/C [5] [%]	viability, T/C [6] [%]	viability, T/C [7] [%]	viability, T/C [8] [%]	viability, T/C [9] [%]	viability, T/C [10] [%]	viability, T/C [11] [%]	viability, T/C [12] [%]	viability, T/C [13] [%]	viability, T/C [14] [%]	viability, T/C [15] [%]	further results
COc1cc(Nc2ncc3c(n2)-c2ccc(Cl)cc2C(c2c(F)cccc2OC)=NC3)ccc1C(=O)O + COc1cc2nc(C)nc(NC(C)c3cc(N)cc(C(F)(F)F)c3)c2cc1OC1CCOC1	> 10000	> 10000	> 10000	> 10000	< 31.6	124	93.5	144	171	136	130	105	123	144	140	133	145	87	155	156	viability, T/C [16]: 137%; viability, T/C [17]: 145%; viability, T/C [18]: 118%; viability, T/C [19]: 52%; viability, T/C [20]: 127%; viability, T/C [21]: 81.3%; viability, T/C [22]: 110%; viability, T/C [23]: 69.3%; viability, T/C [24]: 112%; viability, T/C [25]: 3.07%; viability, T/C [26]: 1.62%; viability, T/C [27]: 0.85%; viability, T/C [28]: 2.07%; viability, T/C [29]: 7.95%; viability, T/C [30]: 1.44%
COc1cc2nccc(Oc3ccc(NC(=O)C4(C(=O)Nc5ccc(F)cc5)CC4)cc3)c2cc1OC + COc1cc2nc(C)nc(NC(C)c3cc(N)cc(C(F)(F)F)c3)c2cc1OC1CCOC1	1560	1460	1630	675	< 31.6	80.9	87.8	83.9	75.1	9.68	7.53	96.2	81.1	77.5	71.4	6.75	4.21	77.1	98.6	78.5	viability, T/C [16]: 83.5%; viability, T/C [17]: 4.2%; viability, T/C [18]: 5.34%; viability, T/C [19]: 82.3%; viability, T/C [20]: 80.6%; viability, T/C [21]: 91.9%; viability, T/C [22]: 31.9%; viability, T/C [23]: 2.11%; viability, T/C [24]: 0.21%; viability, T/C [25]: 21%; viability, T/C [26]: 3.18%; viability, T/C [27]: 1.6%; viability, T/C [28]: 1.58%; viability, T/C [29]: 0.32%; viability, T/C [30]: 0.7%
O=C(c1cc(Cc2n[nH]c(=O)c3ccccc23)ccc1F)N1CCN(C(=O)C2CC2)CC1 + COc1cc2nc(C)nc(NC(C)c3cc(N)cc(C(F)(F)F)c3)c2cc1OC1CCOC1	> 10000	> 10000	> 10000	> 10000	> 10000	84.2	91.5	92.3	77.2	69.3	75	80.3	79.2	95.5	80.5	98.9	95.9	79.4	81.5	69.1	viability, T/C [16]: 87%; viability, T/C [17]: 68.1%; viability, T/C [18]: 89.6%; viability, T/C [19]: 104%; viability, T/C [20]: 115%; viability, T/C [21]: 117%; viability, T/C [22]: 113%; viability, T/C [23]: 96.8%; viability, T/C [24]: 88.8%; viability, T/C [25]: 115%; viability, T/C [26]: 121%; viability, T/C [27]: 122%; viability, T/C [28]: 117%; viability, T/C [29]: 72%; viability, T/C [30]: 89.5%
